Holding throughout (assay type): cell-based
The subject of data set [1] is Human Head and Neck cancer, Fadu. The data set is described as follows: Relative cell viability CCK-8, Fadu. The note with it: Fadu cells, relative to untreated cells. The protocol:
Human-derived head and neck cancer cell line Fadu and osteosarcoma cell line Saos-2 were cultured in MEM medium containing 10% FBS, 100 U/mL penicillin, and 100 μg/mL streptomycin.
Following stabilization, the cells were harvested using Trypsin-EDTA treatment, centrifuged at 1,200 rpm for 3 minutes, the supernatant was removed, and the cells were resuspended in the same medium. They were then seeded into a 96-well plate (Costar 96-well cell culture plate, Corning) at 100 μL per well, and the conditions were adjusted as indicated in Table 5.
The cells were cultured in a 5% CO2 incubator at 37° C. for 24 hours, and after stabilization of the cells, each plate was washed with 200 μL of PBS per well and treated with 50 μL of culture medium per well.
After that, 10 μL of CCK-8 was added to each well, and the plate was incubated again at 37° C. in a 5% CO2 incubator for 2 hours.
In other words, when the survival rate of untreated cells (DMSO) is set at 100%, the relative cell survival rate in each group treated with the drug at different concentrations is indicated.

The subject of data set [2] is T cells isolated from mouse spleens. Description: T cell proliferation inhibition (CFSE flow cytometry, anti-CD3/anti-CD28 stimulation). To be noted: mouse spleen T cells, 3 days; for inhibition at 0.01 µM / inhibition at 0.1 µM / inhibition at 1 µM / inhibition at 10 µM / inhibition at 30 µM / inhibition at 50 µM: Mus musculus, T-cell, 72 h, read-out: Proliferation inhibition rate (%). The method in brief:
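Proliferation inhibition (%) came from flow cytometry of CFSE dilution after 3 days' culture at 37 °C with compound (10 nM, 100 nM, 1, 10, 30, 50 μM; triplicate wells). Cells were magnetically purified T cells from C57BL/6 mouse spleens, 2×10^5 per well, stimulated with 0.5 μg/mL each anti-CD3 and anti-CD28.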

Data set [3] deals with Human B Lymphocyte cell line, SU-DHL-8. The data set is described as follows: Relative cell viability CCK-8, SU-DHL-8. The note with it: 48 hours, untreated (DMSO) = 100%; for viability at 1 µM / viability at 10 µM / viability at 30 µM / viability at 50 µM: Homo sapiens, SU-DHL-8, 48 h; for viability at 1 µM: read-out: Relative cell viability (%), SU-DHL-8, 1 μM; for viability at 10 µM: read-out: Relative cell viability (%), SU-DHL-8, 10 μM; for viability at 30 µM: read-out: Relative cell viability (%), SU-DHL-8, 30 μM; for viability at 50 µM: read-out: Relative cell viability (%), SU-DHL-8, 50 μM. The gist of the method: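 Cells grown in RPMI-1640 with 10% FBS, treated with compound at several concentrations, then given CCK-8 for 4 h at 37° C. Viability expressed as percent of DMSO-treated cells.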

The source of these data is patent publication US20260183274A1, “PDK1 REGULATORY COMPOUND AND COMPOSITION CONTAINING THE SAME” (PROVIBIO CO., LTD., priority 2024, published 2026).

As for `Cc1ccc(OC2CCN(CCCCCCCCCCCCNC(=O)c3cccnc3N)CC2)cc1` [Compound 51, 2-Amino-N-(12-(4-(p-tolyloxy)piperidin-1-yl)dodecyl) nicotinamide], the “Relative cell viability (%)” value in data set [1] (1 μM) is 24.93%; in data set [1] (10 μM) it was 17.30%; in data set [1] (50 μM), 7.69%. In addition, the “Proliferation inhibition rate (%)” value in data set [2] (compound 10 nM) was determined as 0.77%; in data set [2] (compound 100 nM) it was 16.10%; in data set [2] (compound 1 μM) it was 100.00%; in data set [2] (compound 10 μM) it was 100.00%; in data set [2] (compound 30 μM), 100.00%; in data set [2] (compound 50 μM), 100.00%.

As to `CC(C)CN1CCN(CCCCCCCCCCCCC(=O)Nc2nc(N)c3[nH]cnc3n2)CC1` [Compound 6, 12-[4-(2-methylpropyl)piperazin-1-yl]dodecyl-N-(6-aminopurine-2-yl) carboxamide], in data set [3], the viability at 1 µM worked out at 7.83%, the viability at 10 µM was 6.39%, the viability at 30 µM is 4.66% and the viability at 50 µM was 3.94%. Further, the inhibition at 0.01 µM in data set [2] (compound 10 nM) is -18.5%. Further, the inhibition at 0.1 µM in data set [2] (compound 100 nM) was determined as 100%. The inhibition at 1 µM in data set [2] (compound 1 μM) was determined as 100%. For the same compound, in data set [2] (compound 10 μM), the inhibition at 10 µM stood at 100%. Further, the inhibition at 30 µM in data set [2] (compound 30 μM) came out at 100%. The inhibition at 50 µM in data set [2] (compound 50 μM) came out at 100%.

For the compound `Nc1ncccc1C(=O)NCCCCCCCCCCCCN1CC(F)(F)C1` [Compound 122, 2-Amino-N-(12-(3,3-difluoroazetidin-1-yl)dodecyl) nicotinamide], the “Relative cell viability (%), SU-DHL-8” value in data set [3] (1 μM) is given as 31.84%; in data set [3] (10 μM), 31.91%; in data set [3] (30 μM) it was 32.93%; in data set [3] (50 μM) it was 35.70%. Moreover, the “Proliferation inhibition rate (%)” value came to 0.00% in data set [2] (compound 10 nM); 0.00% in data set [2] (compound 100 nM); 80.00% in data set [2] (compound 1 μM); 100.00% in data set [2] (compound 10 μM); 100.00% in data set [2] (compound 30 μM); 100.00% in data set [2] (compound 50 μM).

Turning to `CN(C)C1CCN(CCCCCCCCCCCCNC(=O)c2cccnc2N)C1` (stereo not shown) [Compound 19, 2-Amino-N-(12-(3-(dimethylamino)pyrrolidin-1-yl)dodecyl)nicotinamide], in data set [3], the viability at 1 µM is 8.51%, the viability at 10 µM was 7.51%, the viability at 30 µM turned out to be 5.98% and the viability at 50 µM came out at 5.08%. Moreover, in data set [2] (compound 10 nM), the inhibition at 0.01 µM is -14.4%. The inhibition at 0.1 µM in data set [2] (compound 100 nM) stood at 100%. For the same compound, the inhibition at 1 µM in data set [2] (compound 1 μM) came out at 100%. Further, the inhibition at 10 µM in data set [2] (compound 10 μM) amounted to 100%. Moreover, the inhibition at 30 µM in data set [2] (compound 30 μM) was 100%. Also, the inhibition at 50 µM in data set [2] (compound 50 μM) was determined as 100%.

Regarding `CN1CCN(CCCCCCCCCCCCNC(=O)c2cccnc2F)CC1` [Compound 121, 2-fluoro-N-(12-(4-methylpiperazin-1-yl)dodecyl) nicotinamide], the “Relative cell viability (%), SU-DHL-8” value in data set [3] (1 μM) turned out to be 34.89%; in data set [3] (10 μM), 28.99%; in data set [3] (30 μM), 29.04%; in data set [3] (50 μM), 31.11%. Besides, the “Proliferation inhibition rate (%)” value worked out at 0.00% in data set [2] (compound 10 nM); 0.00% in data set [2] (compound 100 nM); 0.00% in data set [2] (compound 1 μM); 30.00% in data set [2] (compound 10 μM); 100.00% in data set [2] (compound 30 μM); 100.00% in data set [2] (compound 50 μM).
